Data as given in publication PMC10037499, “High-Throughput Screen Reveals the Structure–Activity Relationship of the Antimicrobial Lasso Peptide Ubonodin” (ACS Central Science, 2023).
Where a SMILES comes first, the peptide text is derived from it.

Legend:
[1] = system: E. coli MC1061; assay: Spot dilution assay of E. coli producing the ubonodin variant from pUboABC; format: cell-based; settings: variant in pUboABC backbone in E. coli MC1061, induction with 100 μM IPTG, ten-fold serial dilutions, biological duplicates
Experimental: Cultures of E. coli MC1061 transformed with the appropriate plasmids were grown. Aliquots of the cultures were sampled prior to and after induction with 100 μM IPTG, and 10-fold serial dilutions were plated. […]
All cloning was conducted by PCR amplification (using Q5 polymerase), restriction digestion, ligation, (using T4 DNA ligase), and transformation into chemically competent E. coli XL1-Blue. All cloning with a pUboABC backbone was done by plating transformation mixt ures onto Lysogeny Broth (LB) plates supplemented with 100 μg/mL ampicillin and 0.2% w/v glucose, and colonies were inoculated into LB media supplemented with 100 μ g/mL ampicillin and 0.2% w/v glucose to suppress any leaky expression. Cloning for all other plasmid constructs was done by plating transformation mixtures onto Lysogeny Broth (LB) plates supplemented with 100 μ g/ m L ampicillin, and colonies were inoculated into LB media supplemented with 100 μ g/ m L ampicillin.
Plasmids were extracted using Qiagen QIAprep Spin Miniprep Kit and sequence verified using Sanger sequencing. All primer sequences are listed in Table S7, and all plasmid constructs are […]
pUboABC was cloned by amplifying pWC99 with pQE-80 NheI For and pAT8 Nco I Rev.
The amplicon was ligated into pWC99 digested with Nhe I and Nco I. pUboBC was cloned by digesting pUboABC with Nh e I and Nco I and ligating that fragment into pQE-80 digested with Nhe I and Nco I. pUboABC S5H I16P and pUboABCD S5H I16P were cloned with overlap PCR using pWC99 as the template. One fragment was amplified with pQE-80 EcoRI For and S5H I16P Rev v2 and the second fragment was amplified with S5H I16P For v2 and pQE-80 HindII I Rev. […]
All remaining plasmid constructs were cloned with overlap PCR. One fragment was amplified with Xho I For Lib and a mutagenic reverse primer and the second fragment was amplified with NheI Rev Lib and a mutagenic forward primer. The templates and mutagenic […]
The fragments were joined with a second round of PCR and amplified with XhoI For Lib and NheI Rev Lib. Amplicons were ligated into the appropriate plasmid backbone digested with Xho I and Nhe I-HF. The plasmid backbones […]
The appropriate plasmid was transformed into electrocompetent E. coli MC1061, plated onto LB plates supplemented with 100 μ g/ m L ampicillin and 0.2% w/v glucose, and incubated at 30 °C for 16 hours. Colonies were inoculated into LB media supplemented with 100 μ g/ m L ampicillin and 0.2% w/v glucose and grown at 37 °C for 16 hours. These cultures were sub-cultured to an OD600 of 0.02 in 50 mL of LB media supplemented with 100 μg/mL ampicillin in a 250 mL flask. Once the OD600 reached 0.3, a 1 mL aliquot was sampled immediately prior to inducing the cultures with 100 μM isopropyl β-D-1-thiogalactopyranoside (IPTG). The aliquot was washed with Phosphate-Buffered Saline (PBS) two times and ten-fold serial dilutions were spotted onto LB plates supplemented with 100 μ g/ m L ampicillin and 0.2% w/v glucose. For each following timepoint, a 1 mL sample of each culture was withdrawn, washed with PBS two times, and ten- […]
fold serial dilutions were spotted onto LB plates supplemented with 100 μ g/m L ampicillin and 0.2% w/v glucose. Plates were incubated for 16 hours at 37 °C before imaging. […]
250 mL flask. Ten-fold serial dilutions of the culture were plated onto LB plates supplemented with 100 μ g/ m L ampicillin and 0.2% w/v glucose. The cultures were then grown at 37 °C, and once the OD600 reached 0.3, a 1 mL sample of the culture was withdrawn immediately before the cultures were induced with 10 μM or 100 μM IPTG and returned to grow longer. […]
All plates were incubated at 37 °C for 16 hours, after which the number of colonies was counted. Three biological replicates of this assay were done.
Co-Culture of E. coli MC1061 pUboABC and E. coli MC1061 pUboBC pUboABC (0.9 ng) and pUboBC (0.1 ng) were transformed into electrocompetent E. coli MC1061 with a one- hour outgrowth at 37 °C in LB media supplemented with 0.2% w/v glucose. […]

[2] = system: B. cenocepacia AU0756
Experimental: We proceeded to test the antimicrobial activity of the selected variants against two clinical isolates of the Bcc, B. cenocepacia AU0756 and B. cenocepacia AU24362, in broth microdilution assays. […] We revisited these measurements using broth microdilution assays following the Clinical & Laboratory Standards Institute (CLSI) standard.
Broth microdilution assays of the ubonodin variants were conducted using B. cenocepacia AU0756 and B. cenocepacia AU24362 with guidelines provided by the Clinical & Laboratory Standards Institute (CLSI).

[3] = system: RNA polymerase (RNAP) in E. coli MC1061; assay: High-throughput growth-based screen with NGS (enrichment value) for RNA polymerase inhibition; format: cell-based; parameters: key to Experimental observation (enrichment observed in the screen): Dropout: Many variants inhibit RNAP so strongly that they cannot be detected by NGS after IPTG induction (referred to as dropout variants); settings: Table S4; variants whose MICs were tested
Experimental: The single mutant library was analyzed by NGS at multiple stages of sample preparation (Figure 2A) to track its evolution throughout the screen. Specifically, the frequency of each possible aa variant was computed at each stage by summing up counts for each distinct translated sequence and dividing by the total number of counts for all variants (eq S1, SI Methods). Since cells expressing an RNAP-inhibiting ubonodin variant will have growth defects relative to cells with a nontoxic variant, RNAP-inhibiting ubonodin variants are expected to decrease in frequency throughout the screen.
First, the naïve library (digested PCR products) was sequenced. These digested PCR products were cloned into the pUboABC backbone and transformed into a recA^– cloning strain. This plasmid library was sequenced again to capture any changes upon transformation of the library into E. coli. The change between the naïve library and the cloning transformation library was minimal (Figure S6A). This plasmid library was transformed into the screening strain MC1061, and the plasmid from resulting colonies was also sequenced. The library in MC1061 was grown up en masse in liquid culture to mid log phase, and a portion of the culture was plated. These colonies were scraped, then the plasmid was isolated and sequenced. Finally, the liquid culture was induced with IPTG, after which a portion of the culture was plated and the plasmid was isolated and sequenced. It is key to note that all samples from liquid cultures were plated prior to sequencing to ensure that only viable cells were sequenced. […] The rationale for sequencing at these five different stages was the possibility that leaky expression of uboA would affect the frequency of active mutants prior to IPTG induction. Indeed, we observed that the frequency of some uboA mutants dropped as soon as they were transformed into the screening strain MC1061 while the frequency of other mutants climbed (Figure 2B).
The behavior of the point variants (i.e., variants with a single aa substitution) was examined by calculating their enrichment values, the base-2 logarithm of the ratio of the variant’s frequency at a specific step of the screen to the variant’s frequency in the cloning transformation library (eq S3, Figure S6). The most relevant enrichment value for ubonodin activity is the comparison between the post-IPTG library and the cloning transformation library (Figure 2A). […] Many variants inhibit RNAP so strongly that they cannot be detected by NGS after IPTG induction (referred to as dropout variants). […] Variants with a stop codon mutation and variants containing an aa substitution at Tyr9 or Tyr27 (positions conserved in MccJ25 and shown to be crucial for RNAP inhibition, see Figure S7)[26] have positive enrichment values (1.2–1.7), serving as quality control for the screen (Figure 3A). Strikingly, 63% of point variants decreased in frequency, indicating a high tolerance to aa substitution. […] The positions with active variants are Asn11 through Ser24 in the loop and Asp3, Ser5, and Ala7 in the ring.
The single mutant and double mutant libraries were transformed into E. coli MC1061. Colonies were resuspended in media and subcultured into a larger culture. Aliquots of the cultures were sampled prior to and after induction with 10 μM IPTG and 100 μM IPTG and plated. After 16 h of incubation, the colonies were resuspended in media and plasmids were miniprepped.
Samples were PCR amplified with barcoded primers and combined such that double mutant library samples were over-represented compared to single mutant library samples to provide sufficient coverage of the larger double mutant library. Samples were sequenced using an Illumina MiSeq Micro 300nt and an Illumina NovaSeq 6000 Sequencing System. Downstream analysis of the data was conducted with Python, MATLAB, and R.
V to reduce genomic DNA contamination. One fragment was amplified with Xho I For Lib and a […]

Structure (SMILES): CC[C@H](C)[C@@H]1NC(=O)[C@H](CO)NC(=O)CNC(=O)[C@H](CC(=O)O)NC(=O)CNC(=O)CNC(=O)CC[C@@H](C(=O)N[C@@H](Cc2ccc(O)cc2)C(=O)N[C@@H](Cc2ccccc2)C(=O)N[C@@H](CC(N)=O)C(=O)N[C@@H](CCCNC(=N)N)C(=O)N2CCC[C@H]2C(=O)N[C@@H](CC(N)=O)C(=O)N[C@@H](Cc2c[nH]cn2)C(=O)N[C@H](C(=O)N[C@@H](Cc2c[nH]cn2)C(=O)N[C@@H](CC(=O)O)C(=O)N[C@@H](Cc2c[nH]c3ccccc23)C(=O)N[C@@H](CCC(N)=O)C(=O)N[C@H](C(=O)N[C@@H](CCSC)C(=O)N[C@@H](CC(=O)O)C(=O)N[C@@H](CO)C(=O)NCC(=O)N[C@@H](Cc2ccc(O)cc2)C(=O)N[C@@H](Cc2ccc(O)cc2)C(=O)NCC(=O)O)[C@@H](C)CC)[C@@H](C)CC)NC(=O)[C@H](C)NC1=O [M14N] (HELM PEPTIDE1{G.G.D.G.S.I.A.E.Y.F.N.R.P.N.H.I.H.D.W.Q.I.M.D.S.G.Y.Y.G}$PEPTIDE1,PEPTIDE1,1:R1-8:R3$$$V2.0)
- Inhibits Growth [1]: Yes
- B. cenocepacia AU0756 MIC [2]: 0.5 to 2 µM
- Experimental observation (enrichment observed in the screen) [3]: -4.7

Structure (SMILES): CC[C@H](C)[C@@H]1NC(=O)[C@H](CO)NC(=O)CNC(=O)[C@H](CC(=O)O)NC(=O)CNC(=O)CNC(=O)CC[C@@H](C(=O)N[C@@H](Cc2ccc(O)cc2)C(=O)N[C@@H](Cc2ccccc2)C(=O)N[C@@H](CC(N)=O)C(=O)N[C@@H](Cc2ccccc2)C(=O)N2CCC[C@H]2C(=O)N[C@@H](CCSC)C(=O)N[C@@H](Cc2c[nH]cn2)C(=O)N[C@H](C(=O)N[C@@H](Cc2c[nH]cn2)C(=O)N[C@@H](CC(=O)O)C(=O)NCC(=O)N[C@@H](CCC(N)=O)C(=O)N[C@H](C(=O)N[C@@H](CCSC)C(=O)N[C@@H](CC(=O)O)C(=O)N[C@@H](CO)C(=O)NCC(=O)N[C@@H](Cc2ccc(O)cc2)C(=O)N[C@@H](Cc2ccc(O)cc2)C(=O)NCC(=O)O)[C@@H](C)CC)[C@@H](C)CC)NC(=O)[C@H](C)NC1=O [R12F W19G] (HELM PEPTIDE1{G.G.D.G.S.I.A.E.Y.F.N.F.P.M.H.I.H.D.G.Q.I.M.D.S.G.Y.Y.G}$PEPTIDE1,PEPTIDE1,1:R1-8:R3$$$V2.0)
- Inhibits Growth [1]: Yes
- B. cenocepacia AU0756 MIC [2]: >8 µM
- Experimental observation (enrichment observed in the screen) [3]: Dropout

Structure (SMILES): CC[C@H](C)[C@@H]1NC(=O)[C@H](CO)NC(=O)CNC(=O)[C@H](CC(=O)O)NC(=O)CNC(=O)CNC(=O)CC[C@@H](C(=O)N[C@@H](Cc2ccc(O)cc2)C(=O)N[C@@H](Cc2ccccc2)C(=O)N[C@@H](CC(N)=O)C(=O)N[C@@H](Cc2ccccc2)C(=O)N2CCC[C@H]2C(=O)N[C@@H](CCSC)C(=O)N[C@@H](Cc2c[nH]cn2)C(=O)N[C@H](C(=O)N[C@@H](Cc2c[nH]cn2)C(=O)N[C@@H](CC(=O)O)C(=O)N[C@@H](Cc2c[nH]c3ccccc23)C(=O)N[C@@H](CCC(N)=O)C(=O)N[C@H](C(=O)N[C@@H](CCSC)C(=O)N[C@@H](CC(=O)O)C(=O)N[C@@H](CO)C(=O)NCC(=O)N[C@@H](Cc2ccc(O)cc2)C(=O)N[C@@H](Cc2ccc(O)cc2)C(=O)NCC(=O)O)[C@@H](C)CC)[C@@H](C)CC)NC(=O)[C@H](C)NC1=O [R12F] (HELM PEPTIDE1{G.G.D.G.S.I.A.E.Y.F.N.F.P.M.H.I.H.D.W.Q.I.M.D.S.G.Y.Y.G}$PEPTIDE1,PEPTIDE1,1:R1-8:R3$$$V2.0)
- Inhibits Growth [1]: Yes
- B. cenocepacia AU0756 MIC [2]: 2 µM
- Experimental observation (enrichment observed in the screen) [3]: -5.3

Structure (SMILES): CC[C@H](C)[C@H](NC(=O)[C@H](Cc1c[nH]cn1)NC(=O)[C@H](CCSC)NC(=O)[C@@H]1CCCN1C(=O)[C@@H](NC(=O)[C@H](CC(N)=O)NC(=O)[C@H](Cc1ccccc1)NC(=O)[C@H](Cc1ccc(O)cc1)NC(=O)[C@@H]1CCC(=O)NCC(=O)NCC(=O)N[C@@H](CC(=O)O)C(=O)NCC(=O)N[C@@H](CO)C(=O)N[C@@H]([C@@H](C)CC)C(=O)N[C@@H](C)C(=O)N1)C(C)C)C(=O)NCC(=O)N[C@@H](CC(=O)O)C(=O)N[C@@H](Cc1c[nH]c2ccccc12)C(=O)N[C@@H](CCC(N)=O)C(=O)N[C@H](C(=O)N[C@@H](CCSC)C(=O)N[C@@H](CC(=O)O)C(=O)N[C@@H](CO)C(=O)NCC(=O)N[C@@H](Cc1ccc(O)cc1)C(=O)N[C@@H](Cc1ccc(O)cc1)C(=O)NCC(=O)O)[C@@H](C)CC [R12V H17G] (HELM PEPTIDE1{G.G.D.G.S.I.A.E.Y.F.N.V.P.M.H.I.G.D.W.Q.I.M.D.S.G.Y.Y.G}$PEPTIDE1,PEPTIDE1,1:R1-8:R3$$$V2.0)
- Inhibits Growth [1]: Yes
- B. cenocepacia AU0756 MIC [2]: 0.25 to 0.5 µM
- Experimental observation (enrichment observed in the screen) [3]: Dropout
